Columns and labels:
[1] = tested on: EphA3/HEK 293 cells; assay: Biochemical demonstration of ephrin cleavage (Western blot); assay type: cell-based, human; conditions: cells stimulated with clustered ephrin-A5 Fc
Protocol: (§1) FIG. 6. Eph/ephrin mediated cell-cell repulsion, but not adhesion leads to ephrinA5 cleavage by a metalloprotease. • (A) Alexa ephrinA5-Fc (I, III) or Alexa EphA1 Fc (II) control proteins, conjugated onto protein A-coated Dynabeads were added to cultures of EphA3/HEK 293 cells (I, II) or LK63 cells (III). Cleavage and internalisation of the fluorescent proteins was monitored by confocal microscopy. Selected images of confocal time-lapse experiments (1 frame/min) are shown. Alexa 546 fluorescence is represented in white and outlines cells in panels I, while the cells in panels II, III appear dark-grey or black. • (B) Prior to stimulation (30 min) with Alexa ephrinA5-Fc coated beads (I, II) or with Alexa Fc control beads (III), parallel cultures of EphA3/293 cells were treated for 4 h with 5 mM 1′,10′-O-Phenanthroline (II) or left untreated (I, III). […] Using an EphA3-Fc construct, ephrin-A5 was immuno precipitated from lysates of EphA3/HEK 293 cells or LK63 cells, which had been treated for indicated times with 7.5 ì g/ml of pre-clustered (+X-lnk) or non-clustered (−X-lnk) ephrin-A5 Fc, and analysed for ephrin cleavage by Western blot with anti-ephrinA5 antibody. To assess cleavage by metalloproteases, parallel cultures were treated with 1′,10′-O-phenanthroline (+OPN) or left untreated. […]

[2] = tested on: EphA3/HEK 293 cells; assay: Cleavage and internalisation of Alexa-labelled protein from protein A Dynabeads; assay type: cell-based, human; conditions: 5 mM, 4 h prior to bead addition
Protocol: as §1, with “antibody.” for “antibody. To assess cleavage by metalloproteases, parallel cultures were treated with 1′,10′-O-phenanthroline (+OPN) or left untreated.”
Eph/ephrin stimulation was analysed in-situ by time-lapse confocal microscopy and immunocytochemistry as described (Lawrenson et al., 2002). […]

[3] = tested on: EphA3/A02 malignant melanoma cells; assay: Phosphatase inhibition, anti-EphA3 IP / anti-phosphotyrosine western blot; assay type: cell-based; conditions: increasing amounts
Protocol: (§2) FIG. 8. Phosphatase inhibition triggers EphA3 phosphorylation in LK63 cells • (A) Anti-EphA3 immunoprecipitates from TritonX100 lysates of EphA3/HEK 293, EphA3/AO2 melanoma cells and LK63 leukaemia cells were treated with either crosslinked ephrin-A5 or increasing concentrations of sodium pervanadate as indicated, and analysed by anti-phosphotyrosine western blot. • (B) Anti-EphA3 immunoprecipitates from TritonX100 lysates of vanadate or hydrogen peroxide-treated EphA3/HEK 293 (left panel) and EphA3/AO2 melanoma cells(right panel) were analysed as described in (A).

[4] = tested on: EphA3/HEK 293 cells; assay: as above; assay type: cell-based, human; conditions: increasing amounts
Protocol: as §2

[5] = tested on: LK63 cells; assay: Cell morphology on ephrinA5-Fc coated glass coverslips (rhodamin-phalloidin); assay type: cell-based, human; conditions: 4 h
Protocol: FIG. 1. Surface-bound ephrinA5 causes either cell repulsion or cell adhesion of EphA3-positive tumour cells. • (A) EphA3-positive LK63 human pre-B leukemia cells and LiBr melanoma cells were plated onto glass coverslips coated with ephrinA5-Fc (ephrin, 10 μg/ml) or fibronectin (FN, 10 μg/ml). After 4h the cytoskeleton of adherent, fixed cells was stained with rhodamin-phalloidin. Pictures of representative fluorescence images are shown; the second column represents magnified sections of the first. Scale bar: 20 ì m. • (B) LK63 adhesion and LiBr de-adhesion to surface-bound ephrinA5 are dose-dependent. […] After 4-hour incubation, adherent cells, withstanding rigorous washing, were quantitated by XTT assay (A492 absorbance). Cell attachment is expressed as a percentage (mean, S.E. from three independent assays) relative to wells containing most adherent cells; ( ), LK63 and ( ), LiBr cells and ( ), LK63, ( ), LiBr cells with ephrin inhibition (+inh.). • (C) LiBr melanoma cells in matrigel-coated Basement Membrane migration chambers (Becton Dickinson, 5×10^4/well) were exposed to chemoattractant, 3T3 conditioned media (cond. media) or 1.5 ì g/ml pre-clustered ephrin-A5 Fc in the bottom chamber, or with 1.5 ì g/mil pre-clustered ephrin-A5 Fc placed together with cells into the top chamber. […]

[6] = tested on: HEK293 cells expressing 3YF EphA3GFP; assay: FLIM/FRET of EphA3 phosphorylation after phosphatase inhibition; assay type: cell-based, human; conditions: 30 min, high concentrations
Protocol: (§3) FIG. 7. Pervanadate-induced Eph receptor phosphorylation HEK293 cells, expressing w/t EphA3GFP (A) or 3YF EphA3GFP (B) were incubated with pervanadate (30 min) at indicated concentrations. Fixed cells were examined for FRET as described above. Left, GFP-fluorescence; right, GFP fluorescence lifetime phase maps. Tabulated colour codes indicate GFP lifetimes in ns.
(§4) GFP EphA3 (w/t or mutant) expressing cells were stimulated, fixed, permeabilised and stained with Cy3-conjugated anti phosphotyrosine monoclonal antibody PY72 prior to mounting onto glass slides using Mowiol (Calbiochem). Fluorescence lifetime imaging microscopy (FLIM) sequences were obtained at 80 MHz with an Olympus IX70 microscope (100/1.4 NA oil immersion lens) and analysed as described (Reynolds, Tischer et al. 2003). A 476-nm argon laser line and narrow-band emission filter (HQ510/20; Chroma) were used for GFP, a 100-W mercury arc lamp with high Q Cy3 filter set (excite, HQ545/30; dicroic, Q580LP; emitter, HQ610/75) for Cy3 and Alexa 546. GFP Fluorescence was detected with a dichroic beamsplitter (Q495 LP; Chroma Technology, Brattleboro, Vt.) and narrow-band emission filter. Stimulated FRET was measured in live 293 cells between transiently expressed ephrin-A2GFP and Alexa546 EphA3-Fc.

[7] = tested on: HEK293 cells expressing w/t EphA3GFP; assay: as above; assay type: cell-based, human; conditions: 30 min, increasing concentrations
Protocol: as §3, §4

[8] = tested on: LK63 leukaemia cells; assay: Phosphatase inhibition, anti-EphA3 IP / anti-phosphotyrosine western blot; assay type: cell-based, human; conditions: highest concentration tested (1 mM)
Protocol: as §2

| Molecule | effect on ephrin cleavage (anti-ephrinA5 Western blot) [1] | effect on ephrin cleavage and internalisation from Alexa ephrin-A5-Fc beads [2] | EphA3 phosphorylation [3] | EphA3 phosphorylation [4] | LK63 morphology on ephrin-coated coverslips under phosphatase inhibition [5] | GFP fluorescent lifetime (receptor phosphorylation) [6] | GFP fluorescent lifetime (receptor phosphorylation) [7] | EphA3 phosphorylation compared with EphA3/HEK 293 and EphA3/A02 cells [8] |
| --- | --- | --- | --- | --- | --- | --- | --- | --- |
| c1cnc2c(c1)ccc1cccnc12 [1′,10′-O-Phenanthroline] | significantly-reduced ephrin cleavage | completely abrogated ephrin cleavage and internalisation | – | – | – | – | – | – |
| OO [H2O2, hydrogen peroxide] | – | – | dose dependent increase in EphA3 phosphorylation | dose dependent increase in EphA3 phosphorylation | – | – | – | – |
| sodium-pervanadate | – | – | dose dependent increase in EphA3 phosphorylation | dose dependent increase in EphA3 phosphorylation | lose their characteristic extensions and appear rounded | retained their GFP lifetime | dramatic dose-dependent decrease in the GFP fluorescent lifetime | significantly lower |
